Measurements published in ChEMBL document CHEMBL5465560, “Selectivity Literature for EUbOPEN Chemogenomic Library” (2024).
Values belong to the compound of their own block, whether it stands above or below them.

Columns and labels:
[1] = biological target: Myosin light chain kinase, smooth muscle (Homo sapiens, UniProt Q15746); details: at 10 µM
[2] = biological target: cAMP-dependent protein kinase catalytic subunit alpha (Homo sapiens, UniProt P17612); assay: Selectivity interaction (Kinase counterscreening (biochemical assay)) EUB0000604a PRKACA
[3] = biological target: T1, Alpha-1B adrenergic receptor (Homo sapiens) (UniProt P35368); assay: Selectivity interaction (Panel of kinases, GPCRs, ion channels and transporters (enzymatic assay)) EUB0000266bCl ADRA1B
T1 sequence (whole entry): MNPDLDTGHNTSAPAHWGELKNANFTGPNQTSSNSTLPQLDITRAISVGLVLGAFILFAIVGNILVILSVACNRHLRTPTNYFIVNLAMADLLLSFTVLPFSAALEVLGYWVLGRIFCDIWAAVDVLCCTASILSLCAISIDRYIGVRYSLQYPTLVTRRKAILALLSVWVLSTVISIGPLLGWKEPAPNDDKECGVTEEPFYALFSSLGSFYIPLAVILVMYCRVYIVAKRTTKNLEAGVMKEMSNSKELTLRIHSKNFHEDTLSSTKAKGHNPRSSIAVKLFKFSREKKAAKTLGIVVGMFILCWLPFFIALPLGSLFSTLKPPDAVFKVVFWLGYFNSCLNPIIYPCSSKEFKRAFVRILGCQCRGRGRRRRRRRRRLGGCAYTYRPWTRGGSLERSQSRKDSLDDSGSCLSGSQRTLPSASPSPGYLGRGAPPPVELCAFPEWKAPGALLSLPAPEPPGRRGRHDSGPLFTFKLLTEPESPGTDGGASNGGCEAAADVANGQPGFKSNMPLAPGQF

[4] = biological target: Ribosomal protein S6 kinase alpha-1 (Homo sapiens, UniProt Q15418); assay: Selectivity interaction (ActivX KiNativ screen (kinase selectivity in THP-1 cell lysates)) EUB0000639a RPS6KA1; assay type: subcellular; details: lysate, at 5 µM
[5] = biological target: 5'-AMP-activated protein kinase catalytic subunit alpha-2 (Homo sapiens) (UniProt P54646); details: at 10 µM
[6] = biological target: T2, Tyrosine-protein kinase ZAP-70 (Homo sapiens) (UniProt P43403); details: at 10 µM
T2 sequence (whole entry): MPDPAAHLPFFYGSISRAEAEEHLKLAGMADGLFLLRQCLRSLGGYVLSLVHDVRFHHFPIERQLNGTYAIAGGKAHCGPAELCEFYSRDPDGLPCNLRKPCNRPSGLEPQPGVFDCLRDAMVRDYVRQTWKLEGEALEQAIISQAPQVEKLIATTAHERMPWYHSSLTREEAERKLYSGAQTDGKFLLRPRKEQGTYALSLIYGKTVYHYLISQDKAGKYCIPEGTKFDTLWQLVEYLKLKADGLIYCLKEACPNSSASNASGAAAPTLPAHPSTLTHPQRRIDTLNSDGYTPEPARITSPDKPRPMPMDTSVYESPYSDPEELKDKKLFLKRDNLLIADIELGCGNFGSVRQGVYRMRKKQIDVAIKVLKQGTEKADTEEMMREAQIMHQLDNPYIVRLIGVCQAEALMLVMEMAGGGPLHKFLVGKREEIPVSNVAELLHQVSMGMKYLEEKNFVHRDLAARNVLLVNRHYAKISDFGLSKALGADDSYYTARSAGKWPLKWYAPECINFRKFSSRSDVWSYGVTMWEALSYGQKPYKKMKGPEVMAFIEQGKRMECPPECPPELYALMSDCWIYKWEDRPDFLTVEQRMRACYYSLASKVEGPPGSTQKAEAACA

[7] = biological target: T3, Serine/threonine-protein kinase BRSK2 (Homo sapiens) (UniProt Q8IWQ3); assay: Selectivity interaction (KinomeScan (DiscoverX)) EUB0000045b BRSK2
T3 sequence (whole entry): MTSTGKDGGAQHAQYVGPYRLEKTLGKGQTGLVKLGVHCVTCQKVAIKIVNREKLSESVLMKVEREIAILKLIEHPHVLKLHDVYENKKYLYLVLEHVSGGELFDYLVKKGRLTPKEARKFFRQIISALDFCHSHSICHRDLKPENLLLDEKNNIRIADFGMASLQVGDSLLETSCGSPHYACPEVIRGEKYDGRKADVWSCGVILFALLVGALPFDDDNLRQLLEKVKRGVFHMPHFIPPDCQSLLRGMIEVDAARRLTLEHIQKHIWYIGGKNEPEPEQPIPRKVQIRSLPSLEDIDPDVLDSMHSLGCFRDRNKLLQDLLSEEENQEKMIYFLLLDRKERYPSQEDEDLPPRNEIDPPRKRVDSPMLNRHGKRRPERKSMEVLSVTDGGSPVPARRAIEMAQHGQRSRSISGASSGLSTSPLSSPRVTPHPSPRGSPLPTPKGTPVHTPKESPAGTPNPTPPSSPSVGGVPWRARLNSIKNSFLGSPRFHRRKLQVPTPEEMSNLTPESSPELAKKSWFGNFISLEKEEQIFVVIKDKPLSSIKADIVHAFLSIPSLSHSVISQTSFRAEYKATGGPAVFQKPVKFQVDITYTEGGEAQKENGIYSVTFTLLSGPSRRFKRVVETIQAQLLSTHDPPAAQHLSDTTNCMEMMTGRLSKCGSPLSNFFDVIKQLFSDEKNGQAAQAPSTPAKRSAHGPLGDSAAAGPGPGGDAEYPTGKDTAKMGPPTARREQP

[8] = biological target: RAC-beta serine/threonine-protein kinase (Homo sapiens) (UniProt P31751); assay: Selectivity interaction (KinomeScan (DiscoverX)) EUB0000655a AKT2; details: at 10 µM
[9] = biological target: Serine/threonine-protein kinase tousled-like 2 (Homo sapiens) (UniProt Q86UE8); assay: Selectivity interaction (Kinase panel (KiNativ target engagement assay in Jurkat cells)) EUB0001635a TLK2; assay type: cell-based; details: at 1 µM
Serine/threonine-protein kinase tousled-like 2 (Homo sapiens), sequence (Q86UE8 whole entry, looked up): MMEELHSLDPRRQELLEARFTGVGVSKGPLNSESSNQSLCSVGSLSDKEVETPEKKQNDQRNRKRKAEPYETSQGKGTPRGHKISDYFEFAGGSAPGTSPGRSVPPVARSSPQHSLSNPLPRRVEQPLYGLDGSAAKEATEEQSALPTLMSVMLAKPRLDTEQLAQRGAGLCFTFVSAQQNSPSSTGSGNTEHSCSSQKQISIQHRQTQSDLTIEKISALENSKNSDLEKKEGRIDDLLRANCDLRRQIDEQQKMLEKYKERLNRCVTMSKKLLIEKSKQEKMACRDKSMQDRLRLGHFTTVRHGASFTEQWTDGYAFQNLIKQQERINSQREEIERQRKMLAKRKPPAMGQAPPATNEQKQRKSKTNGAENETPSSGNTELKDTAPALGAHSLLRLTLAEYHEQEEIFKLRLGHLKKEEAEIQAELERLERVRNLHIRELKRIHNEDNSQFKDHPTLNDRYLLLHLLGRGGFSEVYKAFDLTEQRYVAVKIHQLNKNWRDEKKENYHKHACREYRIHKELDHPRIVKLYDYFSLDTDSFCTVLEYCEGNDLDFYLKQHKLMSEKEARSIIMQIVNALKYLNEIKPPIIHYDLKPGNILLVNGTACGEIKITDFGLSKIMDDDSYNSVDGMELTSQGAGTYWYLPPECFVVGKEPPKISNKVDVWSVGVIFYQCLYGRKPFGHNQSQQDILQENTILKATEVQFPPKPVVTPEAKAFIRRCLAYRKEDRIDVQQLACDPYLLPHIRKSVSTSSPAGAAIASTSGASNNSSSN

RAC-beta serine/threonine-protein kinase (Homo sapiens), sequence (P31751 whole entry): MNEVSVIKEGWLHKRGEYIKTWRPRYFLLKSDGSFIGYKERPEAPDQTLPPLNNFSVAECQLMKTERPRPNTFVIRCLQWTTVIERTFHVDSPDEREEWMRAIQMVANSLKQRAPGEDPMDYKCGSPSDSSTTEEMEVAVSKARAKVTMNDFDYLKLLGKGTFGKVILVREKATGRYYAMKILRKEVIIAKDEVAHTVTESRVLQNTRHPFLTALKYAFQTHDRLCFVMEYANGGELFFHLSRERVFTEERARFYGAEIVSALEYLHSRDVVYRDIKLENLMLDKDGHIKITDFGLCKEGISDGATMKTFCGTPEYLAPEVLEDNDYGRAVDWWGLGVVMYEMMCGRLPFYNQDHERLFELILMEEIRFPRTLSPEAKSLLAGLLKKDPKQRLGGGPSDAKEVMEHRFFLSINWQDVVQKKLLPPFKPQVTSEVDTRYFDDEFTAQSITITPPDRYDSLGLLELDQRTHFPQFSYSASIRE
Myosin light chain kinase, smooth muscle, sequence (Q15746 whole entry): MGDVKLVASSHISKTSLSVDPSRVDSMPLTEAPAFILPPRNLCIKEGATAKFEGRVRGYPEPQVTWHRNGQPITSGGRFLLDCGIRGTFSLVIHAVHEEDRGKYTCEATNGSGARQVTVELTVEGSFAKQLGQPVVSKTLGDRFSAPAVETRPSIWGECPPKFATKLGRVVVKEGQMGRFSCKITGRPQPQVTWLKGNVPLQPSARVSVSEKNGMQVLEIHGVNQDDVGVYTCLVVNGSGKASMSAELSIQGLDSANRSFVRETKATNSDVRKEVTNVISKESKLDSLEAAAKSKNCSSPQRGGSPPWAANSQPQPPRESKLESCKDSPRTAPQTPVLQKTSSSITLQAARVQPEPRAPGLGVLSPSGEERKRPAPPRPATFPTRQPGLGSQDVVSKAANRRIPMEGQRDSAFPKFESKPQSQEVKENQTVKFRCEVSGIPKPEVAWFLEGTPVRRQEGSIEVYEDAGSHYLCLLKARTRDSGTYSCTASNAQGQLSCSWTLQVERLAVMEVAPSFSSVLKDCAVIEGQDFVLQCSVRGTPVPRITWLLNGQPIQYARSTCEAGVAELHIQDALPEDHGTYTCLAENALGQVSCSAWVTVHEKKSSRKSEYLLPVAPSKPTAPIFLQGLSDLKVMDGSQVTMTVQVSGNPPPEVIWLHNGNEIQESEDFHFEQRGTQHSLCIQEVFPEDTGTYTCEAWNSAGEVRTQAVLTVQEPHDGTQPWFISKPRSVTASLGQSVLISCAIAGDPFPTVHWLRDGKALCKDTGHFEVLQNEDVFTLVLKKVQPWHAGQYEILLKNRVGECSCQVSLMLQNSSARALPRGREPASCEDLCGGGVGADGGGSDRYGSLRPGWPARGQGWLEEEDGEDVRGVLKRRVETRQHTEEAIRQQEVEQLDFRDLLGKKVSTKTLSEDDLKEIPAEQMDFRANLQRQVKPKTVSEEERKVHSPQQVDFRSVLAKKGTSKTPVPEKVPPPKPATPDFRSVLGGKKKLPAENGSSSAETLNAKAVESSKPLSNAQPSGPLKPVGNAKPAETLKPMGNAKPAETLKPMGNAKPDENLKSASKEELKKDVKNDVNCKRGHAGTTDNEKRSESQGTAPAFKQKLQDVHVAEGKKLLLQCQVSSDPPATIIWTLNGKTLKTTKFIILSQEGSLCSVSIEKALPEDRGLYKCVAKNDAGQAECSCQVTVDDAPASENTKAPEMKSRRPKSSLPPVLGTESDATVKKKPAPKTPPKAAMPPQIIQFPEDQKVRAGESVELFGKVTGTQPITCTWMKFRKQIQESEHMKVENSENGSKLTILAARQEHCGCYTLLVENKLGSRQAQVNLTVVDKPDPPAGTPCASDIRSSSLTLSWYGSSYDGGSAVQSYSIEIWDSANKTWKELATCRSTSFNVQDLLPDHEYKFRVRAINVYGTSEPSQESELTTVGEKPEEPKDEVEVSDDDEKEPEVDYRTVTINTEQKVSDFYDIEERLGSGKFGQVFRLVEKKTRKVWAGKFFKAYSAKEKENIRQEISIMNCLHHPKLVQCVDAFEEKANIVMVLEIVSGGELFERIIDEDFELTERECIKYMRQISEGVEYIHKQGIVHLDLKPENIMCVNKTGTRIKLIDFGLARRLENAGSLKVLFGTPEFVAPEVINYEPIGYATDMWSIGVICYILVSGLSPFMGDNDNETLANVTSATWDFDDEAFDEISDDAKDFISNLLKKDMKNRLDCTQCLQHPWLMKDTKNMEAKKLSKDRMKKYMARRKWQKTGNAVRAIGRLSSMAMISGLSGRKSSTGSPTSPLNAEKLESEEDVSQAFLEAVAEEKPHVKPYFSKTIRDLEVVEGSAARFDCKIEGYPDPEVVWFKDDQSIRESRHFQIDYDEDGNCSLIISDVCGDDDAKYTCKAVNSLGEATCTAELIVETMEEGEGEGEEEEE
5'-AMP-activated protein kinase catalytic subunit alpha-2 (Homo sapiens), sequence (P54646 whole entry, looked up): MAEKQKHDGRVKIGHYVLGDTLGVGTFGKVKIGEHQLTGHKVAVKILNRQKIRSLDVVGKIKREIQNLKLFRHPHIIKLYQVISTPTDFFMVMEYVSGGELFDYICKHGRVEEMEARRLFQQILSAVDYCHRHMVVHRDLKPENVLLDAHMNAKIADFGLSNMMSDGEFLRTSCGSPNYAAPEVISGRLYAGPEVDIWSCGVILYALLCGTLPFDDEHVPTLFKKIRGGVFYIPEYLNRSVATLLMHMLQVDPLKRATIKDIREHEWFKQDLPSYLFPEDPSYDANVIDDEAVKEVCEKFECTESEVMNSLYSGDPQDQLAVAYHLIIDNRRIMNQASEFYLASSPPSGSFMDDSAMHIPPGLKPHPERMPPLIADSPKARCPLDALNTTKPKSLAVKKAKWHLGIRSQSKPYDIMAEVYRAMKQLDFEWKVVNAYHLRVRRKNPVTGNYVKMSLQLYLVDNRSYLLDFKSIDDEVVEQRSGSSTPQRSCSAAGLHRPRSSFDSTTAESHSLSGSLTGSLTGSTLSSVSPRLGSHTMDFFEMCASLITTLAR
Ribosomal protein S6 kinase alpha-1, sequence (Q15418 whole entry): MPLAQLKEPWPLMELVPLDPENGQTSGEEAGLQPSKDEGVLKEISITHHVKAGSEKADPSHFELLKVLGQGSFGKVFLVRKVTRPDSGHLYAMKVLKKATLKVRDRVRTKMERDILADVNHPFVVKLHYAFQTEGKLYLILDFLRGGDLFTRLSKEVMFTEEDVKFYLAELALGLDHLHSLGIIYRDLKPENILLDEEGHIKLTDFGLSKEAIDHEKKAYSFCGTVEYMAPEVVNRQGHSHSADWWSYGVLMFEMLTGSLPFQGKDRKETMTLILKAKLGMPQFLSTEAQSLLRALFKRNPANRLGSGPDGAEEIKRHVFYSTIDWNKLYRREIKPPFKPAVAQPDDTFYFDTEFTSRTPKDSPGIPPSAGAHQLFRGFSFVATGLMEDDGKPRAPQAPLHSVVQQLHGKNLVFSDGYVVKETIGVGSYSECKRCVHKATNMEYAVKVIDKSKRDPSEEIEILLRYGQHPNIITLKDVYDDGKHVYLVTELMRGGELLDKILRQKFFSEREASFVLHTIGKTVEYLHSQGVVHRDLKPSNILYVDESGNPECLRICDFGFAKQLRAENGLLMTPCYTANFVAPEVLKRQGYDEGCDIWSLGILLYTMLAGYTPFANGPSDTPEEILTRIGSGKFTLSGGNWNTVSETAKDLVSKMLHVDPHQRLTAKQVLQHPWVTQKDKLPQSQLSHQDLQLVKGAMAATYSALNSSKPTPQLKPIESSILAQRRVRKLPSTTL

Structure (SMILES): Cc1cc([C@@H](C)Nc2ccccc2C(=O)O)c2nc(N3CCOCC3)cc(=O)n2c1 [AZD-6482]
% of control [1]: 70%

Structure (SMILES): Cc1cnc(Nc2ccc(F)cc2Cl)nc1-c1c[nH]c(C(=O)N[C@H](CO)c2cccc(Cl)c2)c1
Ki [2]: > 4 µM

pXC50 [3]: 5.4 M
Structure (SMILES): CCn1c(-c2nc3cc(C(=O)N4CCCC(N)C4)ccc3n2C)cc2ccccc21 (stereo unspecified)

% of inhibition [4]: 11.7%
Structure (SMILES): CC[C@@H]1[C@H](F)C(=O)N[C@@H]1COc1nccc2cc(C(N)=O)c(OC)cc12 [ZIMLOVISERTIB]

% of control [5]: 100% | % of control [6]: 100%
Structure (SMILES): CCN(CC)CCCCNc1ncc2cc(-c3cc(OC)cc(OC)c3)c(NC(=O)NC(C)(C)C)nc2n1

Structure (SMILES): C=CC(=O)Nc1cc(-n2c(=O)ccc3cnc4ccc(-c5ccc(NS(C)(=O)=O)cc5)cc4c32)ccc1C
% of control ([7]; at 1 µM): 84% | % of control ([7]; at 10 µM): 100%

Structure (SMILES): CN(C)CCOc1ccc(-c2nc(-c3ccncc3)c(-c3ccc4c(c3)CC/C4=N\O)[nH]2)cc1
% of control [8]: 100%

Structure (SMILES): C=CC(=O)Nc1ccc(C(=O)Nc2[nH]nc3c2CN(C(=O)N[C@H](CN(C)C)c2ccccc2)C3(C)C)cc1
% of engagement ([9]; Selectivity number of off-targets 0.0, Selectivity number of targets 233.0, Source Knowledge https://www.sciencedirect.com/science/article/pii/S2451945619300674?via%3Dihub): 6.8% | % of engagement [9]: 13.7%
